Data as given in patent US7838496B2, “Template-fixed peptidomimetics as medicaments against HIV and cancer” (Polyphor AG/Ltd., priority 2003, dated 2010).
*1 amine or outer side, *2 acyl side, *3 side chain or, on linkers, in order; H or OH if unused. Where a SMILES comes first, the peptide text is derived from it. Bridges are numbered along the chain shown (N, C = ends). [ ]: non-standard residue; d: D form. NHCH2(1,3-C6H4)CH2CO = O=C(Cc1cccc(CN[*:1])c1)[*:2]; 2Nal = N[C@@H](Cc1ccc2ccccc2c1)C(=O)O; Cit = NC(=O)NCCC[C@H](N)C(=O)O; Gly(N(CH2)3NH2) = NCCCNCC(=O)O

Assays:
in vitro = type: cell-based
Method: The cytotoxicity of the peptides to HELA cells (Acc57) and COS-7 cells (CRL-1651) was determined using the MTl reduction assay [see ref. 6 and 7, below]. Briefly the method was as follows: HELA cells and COS-7 cells were seeded at 7.0·10^3 and, respectively, 4.5·10^3 cells per well and grown in 96-well microtiter plates for 24 hours at 37° C. at 5% CO2. At this point, time zero (Tz) was determined by MTT reduction (see below). The supernatant of the remaining wells was discarded and fresh medium and the peptides in serial dilutions of 12.5, 25 and 50 μM were pipeted into the wells. Each peptide concentration was assayed in triplicate. Incubation of the cells was continued for 48 hours at 37° C. at 5% CO2. Wells were then washed once with PBS and subsequently 100 μl MTT reagent (0.5 mg/mL in medium RPMI1640 and, respectively, DMEM) was added to the wells. This was incubated at 37° C. for 2 hours and subsequently the medium was aspirated and 100 μl isopropanol was added to each well. The absorbance at 595 nm of the solubilized product was measured (OD595peptide). For each concentration averages were calculated from triplicates. The percentage of growth was calculated as follows: (OD595peptide-OD595Tz-OD595Empty well)/(OD595Tz-OD595Empty well)×100% and was plotted for each peptide concentration.
The LC 50 values (Lethal Concentration, defined as the concentration that kills 50% of the cells) were determined for each peptide by using the trend line function of EXCEL (Microsoft Office 2000) for the concentrations (50, 25, 12.5 and 0 μM), the corresponding growth percentages and the value −50, (=TREND(C50:C0,%50:%0,−50))
(§1) All fine chemicals came from Merck (D)armstadt, Germany).

[1] = tested on: human red blood cells (hRBC); type: cell-based; details: red cells of human, 1 h
Method: The peptides were tested for their hemolytic activity against human red blood cells (hRBC). Fresh hRBC were washed three times with phosphate buffered saline (PBS) by centrifugation for 10 min at 2000×g. Peptides at a concentration of 100 μM were incubated with 20% v/v hRBC for 1 hour at 37-C. The final erythrocyte concentration was approximately 0.9×10^9 cells per mL. A value of 0% resp. 100% cell lysis was determined by incubation of the hRBC in the presence of PBS alone and respectively 0.1% Triton X-100 in H2O. The samples were centrifuged and the supernatant was 20-fold diluted in PBS buffer and the optical density (OD) of the sample at […] was measured. The 100% lyses value (OD540H2O) gave an OD540 of approximately 1.3-1.8. Percent hemolysis was calculated as follows: (OD540peptide/OD540H2O)×100%.

[2] = tested on: 'CCR5' cells / Hut/4-3 cells co-cultivation; experiment: FIGS-Assay (co-cultivated cell cultures, beta-galactosidase/ONPG read-out); type: cell-based; details: 48 hours of co-cultivation
Method: The assay was performed according to ref. 5, below. Stock dilutions of the peptides (10 mM) were prepared by dissolving in 10 mM Tris-HCl at room temperature. Stock solutions were kept at +4° C., light protected. Working dilutions were prepared extemporaneously by serial dilution in Phosphate Buffered Saline (PBS) and added in a final volume of 10 μL directly to the cell cultures. After 48 hours of co-cultivation the cultures were rinsed with PBS and then exposed to glutaraldehyde/formaldehyde (0.2%/2%) in PBS for five minutes. For photometric quantification the fixed cultures were subsequently incubated with ortho-nitro-phenyl-galactopyranoside (ONPG) as a O-galactosidase substrate, which was enzymatically converted into the chromophore ortho-nitrophenol (ONP). The read out is directly obtained by measuring optical density of wells at 405 nm in an IEMS 96 well-plate reader.
as §1

CXCR4 = target: T1, CXCR4 (Homo sapiens, UniProt P61073); experiment: Ca2+ assay: CXCR4 antagonizing activity of the peptides; type: cell-based; details: CXCR4 transfected pre-B cells, Fura-2 fluorescence, 37° C.
T1 construct: expressed in transfected cells
T1 sequence (P61073 whole entry): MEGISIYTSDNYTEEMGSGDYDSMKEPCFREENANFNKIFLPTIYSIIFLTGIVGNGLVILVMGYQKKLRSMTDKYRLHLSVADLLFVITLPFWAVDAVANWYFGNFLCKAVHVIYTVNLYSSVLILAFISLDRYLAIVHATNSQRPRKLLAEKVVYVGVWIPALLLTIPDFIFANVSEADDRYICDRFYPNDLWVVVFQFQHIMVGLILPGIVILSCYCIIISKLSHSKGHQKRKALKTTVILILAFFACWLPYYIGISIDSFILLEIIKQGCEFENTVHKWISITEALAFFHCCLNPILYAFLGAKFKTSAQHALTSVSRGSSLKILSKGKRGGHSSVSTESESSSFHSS
Method: 2.2. Ca^2+− assay: CXCR4Antagonizing Activity of the Peptides
3-4 Mio CXCR4 transfected pre-B cells [see references 1, 2 and 3, below] per measurement were resuspended in 200 μl MSB (20 mM 4-(2-Hyddroxyethyl)-piperazin-1-ethansulfonic acid (HEPES), 136 mM NaCl, 4.8 mM KCl and 1 mM CaCl2) containing 5 mM D-Glucose and were loaded with 0.75 μl of 1 mM Fura-2-acetoxymethylester for 17 minutes at 37° C. The cells were washed free from Fura-2-AM with a platelet centrifuge and resuspended in 800 R1 MSB containing 5 mM D-Glucose. The peptides to be administered were diluted to a 100 fold end concentration in MSB/0.2% PPL, and 8 pl were injected. [Ca^2+ ]i-dependent fluorescence change in response to single or sequential stimulation with the peptide was recorded with a fluorimeter at an excitation wavelength of 340 nm and an end emission wavelength of 510 nm [see ref. 4, below]. Measurements were done under continuous stirring at 37° C. The signal intension was calibrated with 3 mM4 CaCl2/1 nM lonomycin (maximal fura-2-acetoxymethylester saturation) and […] MnCl2 (minimal Fura-2-acetoxymethylester saturation) and [Ca^2+]i-changes are presented in % fura-2-acetoxymethylester saturation.
MSB: 20 nmM HEPES, 136 mM NaCl, 4.8 mM KCl, 1 mM CaCl2.2H2O, pH 7.4; Osmolarity: 310 mOsm adjusted with NaOH or HCl, adjusted with dH2O or PBS.
MSB plus: 5 mM D-glucose in MSB (50 mg/50 mL).
Fura 2-acetoxymethylester: 1 mM stock solution in dimethylsulfoxide.

CCRF-CEM cells = CCRF-CEM cells (Homo sapiens, UniProt P61073); details: read-out: IC50 (μM) Cell migration assay; CCRF-CEM cells migrating to 1 nM SDF-1, 4 hours
Sequence of CCRF-CEM cells (P61073 whole entry): as above
Method: BELA cells and CCRF-CEM cells were maintained in RPMI1640 plus 5% FBS, Pen/Strept and 2 mM L-Glutamine. […] All cell lines were grown at 37° C. at 5% CO2. Cell media, media supplements, PBS-buffer, HEPES, Pen/Strept., L-Glutamine and sera were purchased from Gibco (Pailsey, UK). All fine chemicals came from Merck (D)armstadt, Germany).
Chemotactic Assay (Cell Migration Assay)
The chemotactic response of CCRF-CEM cells to a gradient of stromal cell-derived factor 1 a (SDF-1) was measured using disposable assay plates from Neuroprobe (5 μ pore size) (Gaithersburg, Md.), according to the manufacturer's directions and references therein [especially ref. 8, below]. Briefly, one 175 cm^2 flask was washed once with Dubecco's phosphate buffered saline (DPBS), and trypsinized for 10 minutes or until cells had lifted. The trypsin was neutralized by the addition of fresh medium containing serum and the cells were pelleted, washed once in DPBS, and resuspended at 1-0.5×10^7 cells/ml in RPM!+0.5% bovine serum albumin (BSA). 451 μl of cell suspension were mixed with 5μ of 10-fold concentrated PEM peptide diluted in the same assay medium. 35 μl of this mixture were applied to the top of the assay filter. The cells were allowed to migrate (at 37°) into the bottom chamber of the assay plate containing 1 nM SDF-1. After 4 hours, the filter was removed and MTT was added to the migrated cells to a final concentration of 0.5 mg/ml, and incubated for a further 4 hours. After labeling with MTT, all medium was removed and 100 μl of isopropanol+10 mM HCl were added to the cells. The optical absorbance at 595 nm (ABS595) was read using a Tecan Genios plate reader with Magellan software. The number of cells migrated was determined by comparing ABS595 values against a standard curve generated with a known number of cells in the assay plate and were plotted against SDF-1 concentration to obtain a sigmoidal curve and to determine the IC50 values. The values for IC50 were determined using the Trendline function in Microsoft Excel by fitting a logarithmic curve to the averaged datapoints.

SMILES | CC50 (in vitro) [µM] | Hemolysis at 100 μM [1] [%] | FIGS % inhibition at 200 nM [2] [%] | CC50 at 48 h (in vitro) [µM] | IC50 (CXCR4) [nM] | IC50 (CCRF-CEM cells) [µM] | FIGS % inhibition, At 300 nM ([2]; At 300 nM)
N=C(N)NCCC[C@H](NC(=O)[C@@H]1CSSC[C@H](NC(=O)[C@H](Cc2ccc3ccccc3c2)NC(=O)[C@H](CCCNC(=N)N)NC(=O)[C@@H](N)CCCNC(=N)N)C(=O)N[C@@H](Cc2ccc(O)cc2)C(=O)N[C@@H](CCCCN)C(=O)N[C@H](CCCCN)C(=O)N2CCC[C@H]2C(=O)N[C@@H](Cc2ccc(O)cc2)C(=O)N[C@@H](CCCNC(N)=O)C(=O)N1)C(N)=O [Example 1] (H-RR[2Nal]CYK[dK]PY[Cit]CR-NH2; disulfide 4-11; N-terminus assumed) | 75 | 0.4 | – | – | – | – | –
N=C(N)NCCC[C@H](NC(=O)[C@@H]1CSSC[C@H](NC(=O)[C@H](Cc2ccc3ccccc3c2)NC(=O)[C@H](CCCNC(=N)N)NC(=O)[C@@H](N)CCCNC(=N)N)C(=O)N[C@@H](Cc2ccc(O)cc2)C(=O)N[C@@H](CCCNC(=N)N)C(=O)N[C@H](CCCCN)C(=O)N2CCC[C@H]2C(=O)N[C@@H](Cc2ccc(O)cc2)C(=O)N[C@@H](CCCNC(N)=O)C(=O)N1)C(N)=O [Example 2] (H-RR[2Nal]CYR[dK]PY[Cit]CR-NH2; disulfide 4-11) | – | 0.9 | 3.8 | 58 | – | – | –
N=C(N)NCCC[C@H](NC(=O)[C@@H]1CSSC[C@H](NC(=O)[C@H](Cc2ccc3ccccc3c2)NC(=O)[C@H](CCCNC(=N)N)NC(=O)[C@@H](N)CCCNC(=N)N)C(=O)N[C@@H](Cc2ccc(O)cc2)C(=O)N[C@@H](CCCCN)C(=O)N[C@H](CCCCN)C(=O)N2CCC[C@H]2C(=O)N[C@@H](CCCNC(=N)N)C(=O)N[C@@H](CCCNC(N)=O)C(=O)N1)C(N)=O [Example 3] (H-RR[2Nal]CYK[dK]PR[Cit]CR-NH2; disulfide 4-11; N-terminus assumed) | – | 0.7 | 5.7 | 52 | 490 | – | –
N=C(N)NCCC[C@H](NC(=O)[C@@H]1CSSC[C@H](NC(=O)[C@H](Cc2ccc3ccccc3c2)NC(=O)[C@H](CCCNC(=N)N)NC(=O)[C@@H](N)CCCNC(=N)N)C(=O)N[C@@H](Cc2ccc(O)cc2)C(=O)N[C@@H](CCCCN)C(=O)N2CCC[C@@H]2C(=O)N2CCC[C@H]2C(=O)N[C@@H](Cc2ccc(O)cc2)C(=O)N[C@@H](CCCNC(=N)N)C(=O)N1)C(N)=O [Example 4] (H-RR[2Nal]CYK[dP]PYRCR-NH2; disulfide 4-11; N-terminus assumed) | – | 0.3 | 26.0 | > 300 | 848 | – | –
N=C(N)NCCC[C@H](NC(=O)[C@@H]1CSSC[C@H](NC(=O)[C@H](Cc2ccc3ccccc3c2)NC(=O)[C@H](CCCNC(=N)N)NC(=O)[C@@H](N)CCCNC(=N)N)C(=O)N[C@@H](Cc2ccc(O)cc2)C(=O)N[C@@H](CCCNC(=N)N)C(=O)N2CCC[C@@H]2C(=O)N2CCC[C@H]2C(=O)N[C@@H](Cc2ccc(O)cc2)C(=O)N[C@@H](CCCNC(=N)N)C(=O)N1)C(N)=O [Example 5] (H-RR[2Nal]CYR[dP]PYRCR-NH2; disulfide 4-11; N-terminus assumed) | – | 0.7 | 16.4 | 67 | 132 | – | –
N=C(N)NCCC[C@H](NC(=O)[C@@H]1CSSC[C@H](NC(=O)[C@H](Cc2ccc3ccccc3c2)NC(=O)[C@H](CCCNC(=N)N)NC(=O)CNCCCN)C(=O)N[C@@H](Cc2ccc(O)cc2)C(=O)N[C@@H](CCCNC(N)=O)C(=O)N[C@@H](CCCCN)C(=O)N2CCC[C@@H]2C(=O)N2CCC[C@H]2C(=O)N[C@@H](Cc2ccc(O)cc2)C(=O)N[C@@H](CCCNC(=N)N)C(=O)N[C@@H](CCCNC(N)=O)C(=O)N1)C(N)=O [Example 15] (H-[Gly(N(CH2)3NH2)]R[2Nal]CY[Cit]K[dP]PYR[Cit]CR-NH2; disulfide 4-13) | – | – | – | – | – | 0.57 | –
N=C(N)NCCC[C@H](NC(=O)[C@@H]1CSSC[C@H](NC(=O)[C@H](Cc2ccc3ccccc3c2)NC(=O)[C@H](CCCNC(=N)N)NC(=O)[C@@H](N)CCCNC(=N)N)C(=O)N[C@@H](Cc2ccc(O)cc2)C(=O)N[C@@H](CCCNC(N)=O)C(=O)N[C@@H](CCCCN)C(=O)N2CCC[C@@H]2C(=O)N2CCC[C@H]2C(=O)N[C@@H](Cc2ccc(O)cc2)C(=O)N[C@@H](CCCNC(=N)N)C(=O)N[C@@H](CCCNC(N)=O)C(=O)N1)C(=O)O [Example 20] (H-RR[2Nal]CY[Cit]K[dP]PYR[Cit]CR-OH; disulfide 4-13) | – | 0.2 | – | 138 | 15.5 | – | At 300 nM: 100%
N=C(N)NCCC[C@H](NC(=O)[C@@H]1CSSC[C@H](NC(=O)[C@H](Cc2ccc3ccccc3c2)NC(=O)[C@H](CCCNC(=N)N)NC(=O)[C@@H](N)CCCNC(=N)N)C(=O)N[C@@H](Cc2ccc(O)cc2)C(=O)N[C@@H](CCCNC(N)=O)C(=O)N[C@@H](CCCCN)C(=O)N[C@H]2C[C@H]3C(=O)N[C@@H](CC(=O)N[C@@H](Cc4ccc(O)cc4)C(=O)N[C@@H](CCCNC(=N)N)C(=O)N[C@@H](CCCNC(N)=O)C(=O)N1)C(=O)N3C2)C(N)=O [Example 21] | – | 0.8 | 29.6 | 82 | – | – | –
N=C(N)NCCC[C@H](NC(=O)[C@@H]1CSSC[C@H](NC(=O)[C@H](Cc2ccc3ccccc3c2)NC(=O)[C@H](CCCNC(=N)N)NC(=O)[C@@H](N)CCCNC(=N)N)C(=O)N[C@@H](Cc2ccc(O)cc2)C(=O)N[C@@H](CCCNC(N)=O)C(=O)N[C@@H](CCCCN)C(=O)NCc2cccc(c2)CC(=O)N[C@@H](Cc2ccc(O)cc2)C(=O)N[C@@H](CCCNC(=N)N)C(=O)N[C@@H](CCCNC(N)=O)C(=O)N1)C(N)=O [Example 22] (H-RR[2Nal]CY[Cit]K[NHCH2(1,3-C6H4)CH2CO]YR[Cit]CR-NH2; disulfide 4-12) | – | 0.1 | 22.5 | 75 | 80.3 | – | –
N=C(N)NCCC[C@H](NC(=O)[C@@H]1CSSC[C@H](NC(=O)[C@H](Cc2ccc3ccccc3c2)NC(=O)[C@H](CCCNC(=N)N)NC(=O)[C@@H](N)CCCNC(=N)N)C(=O)N[C@@H](Cc2ccc(O)cc2)C(=O)N[C@@H](CCCNC(N)=O)C(=O)N[C@@H](CCCCN)C(=O)N2CCC[C@H]2C(=O)N2CCC[C@H]2C(=O)N[C@@H](Cc2ccc(O)cc2)C(=O)N[C@@H](CCCNC(=N)N)C(=O)N[C@@H](CCCNC(N)=O)C(=O)N1)C(N)=O [Example 24] (H-RR[2Nal]CY[Cit]KPPYR[Cit]CR-NH2; disulfide 4-13) | – | 1.1 | 17.1 | 67 | 100 | – | –
